The record followed here is patent publication US9241952B2, “Method of treating type II diabetes, hyperglycemia or hypoglycemia by administering a synergistic combination of a sulphonylurea and inulin” (OZSTAR THERAPEUTICS PTY LTD, priority 2010, dated 2016).

What all share (format): in vivo, human
Assay [1] in a line: Fasting blood glucose (FBG), Accu-Chek, T2DM patient on Glibenclamide with inulin (Examples 1 and 3). As to the method: (§1) Other similar devices can also be used.
The efficacy of inulin on Glibenclamide therapy was investigated. Several years prior to inulin combination therapy, patient's FBG fluctuated drastically and was uncontrolled around 10 mmol/L. Their cholesterol and triglyceride were also very high (Table 2). FIG. 1 depicts the monthly FBG average at indicated time points. Conditions of treatments are described below: • January 2007: Patient's endocrinologist increased the Glibenclamide dose from 2×5 mg to 3×5 mg per day. […] For the first time they were diagnosed with Atrial fibrillation and prescribed with Warfarin. […] Low FBG assisted in excellent recovery. • March 2009: Inulin supply became unavailable.
The patient, as described above in Example 1, was switched over to inulin (Orafti), and combination therapy with Glibenclaminde (5 mg, three times daily) continued following a similar protocol as described above except that the patient received 15 gr/day of inulin (Orafti).

Assay [2] can be described thus: FBG, HA1c and lipid profiles by independent pathology laboratory, Example 1 patient (Table 2). To be noted: Nov. 5, 2006; prior to inulin.
Excerpt: as §1

The nature of assay [3]: FBG, T2DM patient on Gliclazide with inulin (Example 2). As to the method: as §1
Another patient, who was under Gliclazide therapy (30 mg, once daily) for nearly a decade with uncontrolled blood glucose levels above 9 mmol/L, also began the combination therapy with inulin (JLS). Various blood parameter measurements were as described in Example 1.

Take `COc1ccc(Cl)cc1C(=O)NCCc1ccc(S(=O)(=O)NC(=O)NC2CCCCC2)cc1` [Glibenclamide]: the “average FBG” value in assay [1] (February 2007, Glibenclamide 3×5 mg per day) was 6 mmol/L; in assay [1] (January 2007, Glibenclamide 2×5 mg per day), 7.8 mmol/L. Further, the FBG in assay [1] (by October 2009, inulin unavailable from March 2009) is ~7.5 mmol/L; in assay [1] (several years prior to inulin combination therapy, uncontrolled), “around 10 mmol/L”. The compound also had a Cholesterol in assay [2] of 6.2 mmol/L. The “Fasting Glucose” value in assay [2] is reported as 10 mmol/L. This compound also registered a Triglyceride in assay [2] of 4 mmol/L.
Consider `Cc1ccc(S(=O)(=O)NC(=O)NN2CC3CCCC3C2)cc1` (stereo not drawn) [Gliclazide], for which, in assay [3] (Gliclazide 30 mg once daily for nearly a decade, uncontrolled), the blood glucose levels result is listed as “above 9 mmol/L”. For the same compound, the FBG level in assay [3] (Gliclazide 30 mg once daily, before inulin, ± SEM) was 9.4 ± 1.82 mmol/L.
